Reference: ChEMBL document CHEMBL4354830, “Discovery of Benzo[cd]indol-2(1H)-ones and Pyrrolo[4,3,2-de]quinolin-2(1H)-ones as Bromodomain and Extra-Terminal Domain (BET) Inhibitors with Selectivity for the First Bromodomain with Potential High Efficiency against Acute Gouty Arthritis” (J Med Chem, 2019)
The source made the active and inactive calls. The calls are words filed in the database; no cut-off is given here.

How the values were obtained:
Homo sapiens [1] = organism: Homo sapiens; assay: Selectivity index, ratio of IC50 for BRD2 BD2 (unknown origin) to IC50 for recombinant human N-terminal His-tagged BRD4 BD1 (44 to 170 residues) expressed in Escherichia coli by AlphaScreen assay
Rattus norvegicus [2] = assay: In vivo inhibition of MSU-induced NF-kappaB P65 phosphorylation in synovial tissue of Sprague-Dawley rat model of acute gout arthritis at 1 mg/kg, ia administered 1 hr before MSU challenge and measured upto 24 hrs by Western blot analysis; format: functional, organism-based
[3] = target: T1, Bromodomain-containing protein 4 (Homo sapiens, UniProt O60885); assay: Binding affinity to immobilized DNA-tagged human BRD4 BD2 by BROMOscan analysis
Rattus norvegicus [4] = assay: Anti-arthritic activity in Sprague-Dawley rat model of acute gout arthritis assessed as reduction in MSU-induced IL-1beta level in synovial tissue at 1 mg/kg, ia administered 1 hr before MSU challenge and measured upto 24 hrs by ELISA; format: functional, organism-based
[5] = target: T1, Bromodomain-containing protein 4; assay: Inhibition of BRD4 BD1 in human THP1 cells assessed as inhibition of MSU-induced NLRP3 inflammasome at 1 uM incubated for 1 hr followed by MSU treatment and measured after 12 hrs by immunofluorescence based confocal microscopy analysis; format: cell-based
Rattus norvegicus [6] = assay: Anti-arthritic activity in Sprague-Dawley rat model of acute gout arthritis assessed as reduction in MSU-induced joint swelling at 1 mg/kg, ia administered 1 hr before MSU challenge and measured upto 24 hrs; format: functional, organism-based
Rattus norvegicus [7] = assay: In vivo inhibition of MSU-induced NLRP3 inflammasome in synovial tissue of Sprague-Dawley rat model of acute gout arthritis at 1 mg/kg, ia administered 1 hr before MSU challenge and measured upto 24 hrs by Western blot analysis; format: functional, organism-based
[8] = target: T1, Bromodomain-containing protein 4; assay: Inhibition of BRD4 BD1 in human THP1 cells assessed as inhibition of MSU-induced ASC activation at 1 uM incubated for 1 hr followed by MSU treatment and measured after 12 hrs by immunofluorescence based confocal microscopy analysis; format: cell-based
[9] = target: T1, Bromodomain-containing protein 4; assay: Inhibition of BRD4 BD1 in human THP1 cells assessed as inhibition of MSU-induced pyroptosis by measuring caspase-/PI+ cells at 1 uM incubated for 1 hr followed by MSU treatment and measured after 12 hrs by PI/caspase 1 double staining based flow cytometric analysis (reference value: 6.8 %); format: cell-based; set-up: scale not given: the % may be the effect or the level left
[10] = target: T1, Bromodomain-containing protein 4; assay: Inhibition of BRD4 BD1 in human THP1 cells assessed as inhibition of MSU-induced pyroptosis by measuring caspase+/PI+ cells at 1 uM incubated for 1 hr followed by MSU treatment and measured after 12 hrs by PI/caspase 1 double staining based flow cytometric analysis (reference value: 12.7 %); format: cell-based; set-up: scale not given: the % may be the effect or the level left
[11] = target: T1, Bromodomain-containing protein 4; assay: Inhibition of BRD4 BD1 in human THP1 cells assessed as inhibition of MSU-induced NLRP3 inflammasome at 1 uM incubated for 1 hr followed by MSU treatment and measured after 12 hrs by Western blot analysis; format: cell-based
Homo sapiens [12] = organism: Homo sapiens; assay: Selectivity index, ratio of IC50 for BRD3 BD2 (unknown origin) […] (unknown origin) by AlphaScreen assay
Rattus norvegicus [13] = assay: In vivo inhibition of MSU-induced NLRP3 inflammasome in synovial tissue of Sprague-Dawley rat model of acute gout arthritis at 1 mg/kg, ia administered 1 hr before MSU challenge and measured upto 24 hrs by immunofluorescence based confocal microscopy analysis; format: functional, organism-based
Rattus norvegicus [14] = assay: In vivo inhibition of MSU-induced ASC activation in synovial tissue of Sprague-Dawley rat model of acute gout arthritis at 1 mg/kg, ia administered 1 hr before MSU challenge and measured upto 24 hrs by immunofluorescence based confocal microscopy analysis; format: functional, organism-based
[15] = Metabolic stability in monkey assessed as intrinsic hepatic clearance by LC/MS-MS analysis; format: ADME, Macaca mulatta; settings: rhesus monkey; read-out: CLH
[16] = Metabolic stability in human assessed as intrinsic hepatic clearance by LC/MS-MS analysis; format: ADME; settings: read-out: CLH
Homo sapiens [17] = organism: Homo sapiens; assay: Selectivity index, ratio of IC50 for BRD3 BD2 (unknown origin) to IC50 for recombinant human N-terminal His-tagged BRD4 BD1 (44 to 170 residues) expressed in Escherichia coli by AlphaScreen assay
[18] = Metabolic stability in dog assessed as intrinsic hepatic clearance by LC/MS-MS analysis; format: ADME, Canis lupus familiaris; settings: read-out: CLH
Homo sapiens [19] = organism: Homo sapiens; assay: Selectivity ratio of Kd for immobilized DNA-tagged human BRD4 BD1 to Kd for immobilized DNA-tagged human BRD4 BD2 by BROMOscan analysis
Homo sapiens [20] = organism: Homo sapiens; assay: Selectivity index, ratio of IC50 BRD2 BD1 (unknown origin) to IC50 for recombinant human N-terminal His-tagged BRD4 BD1 (44 to 170 residues) expressed in Escherichia coli by AlphaScreen assay
[21] = Metabolic stability in rat assessed as intrinsic hepatic clearance by LC/MS-MS analysis; format: ADME; settings: read-out: CLH
Homo sapiens [22] = organism: Homo sapiens; assay: Selectivity index, ratio of IC50 for BRPF1b (unknown origin) to IC50 for recombinant human N-terminal His-tagged BRD4 BD1 (44 to 170 residues) expressed in Escherichia coli by AlphaScreen assay
[23] = target: T2, Bromodomain-containing protein 3 (Homo sapiens, UniProt Q15059); assay: Displacement of tetra-acetylated histone H4 peptide (1-21) from BRD3 BD1 (unknown origin) incubated for 30 mins followed by further incubation with tetra-acetylated histone H4 peptide (1-21) for 30 mins by Alphascreen assay
[24] = target: Bromodomain-containing protein 2 (Homo sapiens, UniProt P25440); assay: Displacement of tetra-acetylated histone H4 peptide (1-21) from BRD2 BD1 (unknown origin) incubated for 30 mins followed by further incubation with tetra-acetylated histone H4 peptide (1-21) for 30 mins by Alphascreen assay
[25] = Metabolic stability in monkey liver microsomes assessed as intrinsic clearance per mg protein measured upto 60 mins by LC/MS-MS analysis; format: ADME, Macaca mulatta, Microsome; settings: rhesus monkey, read-out: CLH
Homo sapiens [26] = organism: Homo sapiens; assay: Selectivity index, ratio of IC50 for BRD3 BD1 (unknown origin) to IC50 for recombinant human N-terminal His-tagged BRD4 BD1 (44 to 170 residues) expressed in Escherichia coli by AlphaScreen assay
[27] = Metabolic stability in rat liver microsomes assessed as intrinsic clearance measured per mg protein upto 60 mins by LC/MS-MS analysis; format: ADME, Microsome; settings: read-out: CLH
[28] = target: T2, Bromodomain-containing protein 3; assay: Displacement of tetra-acetylated histone H4 peptide (1-21) from BRD3 BD2 (unknown origin) incubated for 30 mins followed by further incubation with tetra-acetylated histone H4 peptide (1-21) for 30 mins by Alphascreen assay
Rattus norvegicus [29] = assay: Anti-arthritic activity in Sprague-Dawley rat model of acute gout arthritis assessed as reduction in MSU-induced synovial hyperplasia at 1 mg/kg, ia administered 1 hr before MSU challenge and measured upto 24 hrs by hematoxylin and eosin staining based histopathological analysis; format: functional, organism-based
[30] = target: T1, Bromodomain-containing protein 4; assay: Displacement of tetra-acetylated histone H4 peptide (1-21) from recombinant human N-terminal His-tagged BRD4 BD1 (44 to 170 residues) expressed in Escherichia coli incubated for 30 mins followed by further incubation with tetra-acetylated histone H4 peptide (1-21) for 30 mins by Alphascreen assay
[31] = target: T1, Bromodomain-containing protein 4; assay: Binding affinity to immobilized DNA-tagged human BRD4 BD1 by BROMOscan analysis
[32] = Permeability of compound at 10 uM by PAMPA assay; format: ADME; settings: read-out: permeability

T2 sequence (Q15059 whole entry): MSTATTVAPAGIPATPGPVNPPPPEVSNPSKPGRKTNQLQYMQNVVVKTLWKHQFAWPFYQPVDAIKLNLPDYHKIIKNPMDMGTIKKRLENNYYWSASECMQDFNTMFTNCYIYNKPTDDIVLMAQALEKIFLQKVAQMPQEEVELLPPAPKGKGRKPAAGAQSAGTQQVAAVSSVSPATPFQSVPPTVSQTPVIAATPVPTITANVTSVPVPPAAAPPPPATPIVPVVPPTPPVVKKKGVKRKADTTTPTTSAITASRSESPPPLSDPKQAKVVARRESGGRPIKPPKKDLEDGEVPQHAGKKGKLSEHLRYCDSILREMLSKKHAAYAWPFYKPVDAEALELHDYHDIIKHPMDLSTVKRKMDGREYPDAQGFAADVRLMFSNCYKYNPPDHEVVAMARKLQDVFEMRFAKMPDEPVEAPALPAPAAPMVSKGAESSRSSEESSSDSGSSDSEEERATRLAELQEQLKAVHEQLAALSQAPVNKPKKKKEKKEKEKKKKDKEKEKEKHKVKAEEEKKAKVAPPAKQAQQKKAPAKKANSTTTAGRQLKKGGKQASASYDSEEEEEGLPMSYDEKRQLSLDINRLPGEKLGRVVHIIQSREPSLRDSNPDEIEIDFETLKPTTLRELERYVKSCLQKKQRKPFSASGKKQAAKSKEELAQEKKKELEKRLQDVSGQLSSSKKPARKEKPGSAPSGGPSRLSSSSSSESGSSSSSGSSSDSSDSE
Bromodomain-containing protein 2, sequence (P25440 whole entry): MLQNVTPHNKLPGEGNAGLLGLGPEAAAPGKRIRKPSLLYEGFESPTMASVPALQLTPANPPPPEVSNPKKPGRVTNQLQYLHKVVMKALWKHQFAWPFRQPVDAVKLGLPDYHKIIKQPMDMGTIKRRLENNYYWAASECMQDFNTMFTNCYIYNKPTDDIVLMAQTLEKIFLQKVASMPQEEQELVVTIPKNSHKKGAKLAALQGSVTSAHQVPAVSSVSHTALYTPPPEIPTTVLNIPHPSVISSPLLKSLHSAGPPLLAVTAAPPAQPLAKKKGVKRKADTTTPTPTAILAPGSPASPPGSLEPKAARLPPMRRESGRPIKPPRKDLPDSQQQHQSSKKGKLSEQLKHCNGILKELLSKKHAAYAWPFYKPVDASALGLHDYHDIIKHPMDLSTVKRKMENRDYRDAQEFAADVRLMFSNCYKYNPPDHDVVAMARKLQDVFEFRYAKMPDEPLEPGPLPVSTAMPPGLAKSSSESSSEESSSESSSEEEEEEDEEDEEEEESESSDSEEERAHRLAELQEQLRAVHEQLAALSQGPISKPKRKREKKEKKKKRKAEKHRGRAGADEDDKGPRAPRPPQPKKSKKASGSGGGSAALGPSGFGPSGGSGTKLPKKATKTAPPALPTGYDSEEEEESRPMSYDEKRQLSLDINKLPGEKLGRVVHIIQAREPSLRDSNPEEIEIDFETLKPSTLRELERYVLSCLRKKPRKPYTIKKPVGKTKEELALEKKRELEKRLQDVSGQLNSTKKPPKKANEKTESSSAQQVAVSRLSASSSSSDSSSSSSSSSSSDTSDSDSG

Ratio IC50 (Homo sapiens [1]): 244
Kd [3]: > 25000 nM
inhibition [5]: Active
inhibition [8]: Active
Activity [9]: 4.9%
Activity [10]: 4.4%
inhibition [11]: Active
Ratio IC50 (Homo sapiens [12]): 202
CLint scaled [15]: 194 mL/min/kg
CLint scaled [16]: 88.4 mL/min/kg
Ratio IC50 (Homo sapiens [17]): 568
CLint scaled [18]: 192 mL/min/kg
Selectivity ratio (Homo sapiens [19]): 238
Ratio IC50 (Homo sapiens [20]): 102
CLint scaled [21]: 264 mL/min/kg
Ratio IC50 (Homo sapiens [22]): 6.5
IC50 [23]: 246 nM
IC50 [24]: 8950 nM
microsomal CLint [25]: 135 µL/min/mg
Ratio IC50 (Homo sapiens [26]): 2.8
microsomal CLint [27]: 147 µL/min/mg
IC50 [28]: 49800 nM
IC50 [30]: 87.7 nM
Kd [31]: 105 nM
Papp at 10 µM [32]: 0.117 ×10⁻⁶ cm/s
SMILES: COc1ccccc1S(=O)(=O)Nc1ccc2c3c(cc(-n4cnc(C)c4)nc13)C(=O)N2C
inhibition (Rattus norvegicus [2]): Active
inhibition (Rattus norvegicus [4]): Active
inhibition (Rattus norvegicus [6]): Active
inhibition (Rattus norvegicus [7]): Active
inhibition (Rattus norvegicus [13]): Active
inhibition (Rattus norvegicus [14]): Active
inhibition (Rattus norvegicus [29]): Active
